Consider 15 compounds from US6867320B2, “Substituted phenylalkanoic acid derivatives and use thereof” (Asahi Kasei Pharma Corporation, priority 2002, dated 2005).

Structures are written as SMILES.

Assay [1] deals with PGE2 production from IL-1β-stimulated MG-63 cells. Put plainly: Suppressing action on PGE2 production from IL-1β-stimulated MG-63 cells. Type of assay: cell-based. The following applies: Homo sapiens, IL-1β 1 ng/ml, 18 hours, read-out: PGE2 production suppression ratio. In a few lines: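 Human osteosarcoma MG-63 cells (2×10^4/well) switched to 0.5% FBS medium, treated with compound, then stimulated with IL-1β at 1 ng/ml final for 18 h. Supernatant PGE2 measured by EIA; suppression ratio calculated against stimulated and unstimulated wells.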

The test system of assay [2] is zymosan-stimulated footpad edema. The assay can be described thus: Mouse zymosan-stimulated footpad edema reaction. The following applies: ICR female mice, oral 0.1 to 500 mg/kg, compared with positive control group. It counts as in vivo. As for the experimental part:
3. Suppressing Effect on Mouse Zymosan-stimulated Footpad Edema Reaction A suppressing effect on footpad edema caused by zymosan as an inflammatory stimulant was studied by the following method. Groups of ICR female mice (6- to 7-week old) each consisting of eight mice were used for the test. A test compound was suspended or dissolved in purified water containing 0.5% methylcellulose and orally administered to the test animals at 0.1 to 500 mg/0.2 ml/kg. To the control group, purified water containing 0.5% methylcellulose was administered in a similar manner, which was not added with a test compound. One hour after the administration of the test compound, 0.02 ml of a suspension of zymosan suspended in physiological saline (Otsuka Pharmaceutical) at 1 mg/ml was subcutaneously administered to right hind leg footpad of each mouse. One and two hours after the administration of the zymosan suspension, volume of the right hind leg footpad was measured by using an apparatus for measuring a volume of mouse hind leg footpad edema (Unicom). A difference of the volume of footpad measured above and the footpad volume before the administration of the test compound measured beforehand was regarded as a volume of the edema. For the volume of the edema at 1 hour or 2 hours after the zymosan administration, a graph was prepared by indicating time in abscissa and the edema volume in ordinate, and an edema volume AUC (area under the curve) was obtained up to 2 hours by calculation using the following equation. Edema volume AUC (1·hour)=1/2×1×A+1×(A+B)/2 • A: Edema volume 1 hour after zymosan administration • B: Edema volume 2 hour after zymosan administration A suppression ratio on edema of test compound was obtained by calculation using the following equation. Edema suppression ratio (%)=[1−B/A]×100 • A: Edema volume AUC of positive control • B: Edema volume AUC of test compound administered group (2) Measurement Results

For assay [3], the system named is IgE-stimulated footpad edema. The assay can be described thus: Mouse IgE-stimulated footpad edema reaction. As to conditions: C57BL/6 male mice, oral 0.1 to 500 mg/kg, compared with positive control group. Type of assay: in vivo. As for the experimental part:
4. Suppressing Effect on Mouse IgE-stimulated Footpad Edema Reaction
Suppression on footpad edema caused by IgE antibody as an allergic stimulant was studied by the following method. Groups of C57BL/6 male mice (9- to 11-week old) each consisting of five mice were used for the test. Anti-DNP-BSA IgE serum was subcutaneously administered in a volume of 20 μl to right hind leg footpad of each mouse one day before the test. A test compound was suspended or dissolved in purified water containing 0.5% methylcellulose and orally administered to the test animals at 0.1 to 500 mg/0.2 ml/kg. To the control group, purified water containing 0.5% methylcellulose was administered in a similar manner, which was not added with the test compound. Two hours after the administration of the test compound, 0.2 ml of a solution of DNP-BSA dissolved in physiological saline (Otsuka Pharmaceutical) at 2.5 μg/ml was intravenously administered. The thickness of right hind leg footpad was measured by using a digital thickness gauge (MITSUTOYO) 10, 15, 20, and 30 minutes after the administration of DNP-BSA. A difference of the thickness of footpad measured above and the thickness before the administration of the test compound measured beforehand was regarded as a thickness of edema.
For the thickness of the edema at 10, 15, 20 and 30 minutes after the DNP-BSA administration, a graph was prepared indicating time in abscissa and the edema thickness in ordinate, and edema thickness AUC […] was obtained by calculation according to the following equation. Edema thickness AUC (mm·minute)=1/2×10×A+5×(A+B)/2+5×(B+C)/2+10×(C+D)/2 • A: Edema thickness 10 minutes after DNP-BSA administration • B: Edema thickness 15 minutes after DNP-BSA administration • C: Edema thickness 20 minutes after DNP-BSA administration • D: Edema thickness 30 minutes after DNP-BSA administration
A suppressing ratio on edema of a test compound was obtained by calculation in accordance with the following equation. Edema suppression ratio (%)=[1−B/A]×100 • A: Edema thickness AUC of positive control • B: Edema thickness AUC of test compound administered group (2) Measurement Results

Assay [4] concerns PGD2 production from IgE-stimulated RBL-2H3 cells. The assay can be described thus: Suppressing action on PGD2 production from IgE-stimulated RBL-2H3 cells. The following applies: Rattus norvegicus, 10 min, IgE/DNP-BSA stimulated RBL-2H3 cells, read-out: PGD2 production suppression ratio. Type of assay: cell-based. An excerpt:
(§1) 2. Suppressing Action on PGD2 and LTB4 Production from IgE-Stimulated RBL-2H3 Cells
(§2) Suppressing action on PGD2 and LTB4 production caused by IgE as an allergic stimulant was investigated by the following method. Cells of RBL-2H3, which is a rat mastocytoma cell line (purchased from ATCC), were suspended in DEMEM medium (GIBCO) containing 10% fetal bovine serum (BioFluid), inoculated to each well of 48-well culture plate at a density of 2×10^4 cells/well and cultured overnight. Then, IgE antiserum directed to dinitrophenylated BSA (henceforth DNP-BSA) was further added to each well, and the cells were cultured for 30 minutes. Then, the medium was changed to DEMEM medium containing 0.5% fetal bovine serum, a test compound was added with each well, and DNP-BSA was further added at a final concentration of 100 ng/ml as a stimulant. Ten minutes after the stimulant was added, the culture supernatant was collected, and the PGD2 concentration and LTB4 concentration in the culture supernatant were measured by using EIA kit (CAYMAN). By using a well which was not added with the stimulant as a negative control and a well which was added only with the stimulant as a positive control, suppressing ratios on mediator production were calculated from the production amounts of the mediators in the well added with the test compound using the following equation. PGD2 or LTB4 production suppression ratio=[1−(C−B)/(A−B)]×100 • A: PGD2 or LTB4 production amount of positive control • B: PGD2 or LTB4 production amount of negative control • C: PGD2 or LTB4 production amount in well added with test compound
(§3) Further, as control compounds for comparison, reference compound (1), 3-(2-cyclohexylmethyloxy-1,1′-biphenyl-5-yl)propionic acid described in WO99/19291, reference compounds (2) and (3), [2-(5,6,7,8-tetrahydro-5,5,8,8-tetramethyl-2-naphthalenyl)methyloxy-1,1′-biphenyl-5-yl]carboxylic acid [reference compound (2)] and 3-[3′-carboxy-2-(5,6,7,8-tetrahydro-5,5,8,8-tetramethyl-2naphthalenyl)methyloxy-1,1′-biphenyl-6-yl]propionic acid [reference compound (3)] described in U.S. Pat. No. 5,391,817 and Japanese Patent Unexamined Publication (Kokai) No. 7-22399, respectively, were used, and activities thereof were similarly measured.

Assay [5] has as its system LTB4 production from IgE-stimulated RBL-2H3 cells. Put plainly: Suppressing action on LTB4 production from IgE-stimulated RBL-2H3 cells. As to conditions: Rattus norvegicus, 10 min, IgE/DNP-BSA stimulated RBL-2H3 cells, read-out: LTB4 production suppression ratio. It counts as cell-based.
Source text: as §1, §2, §3

Consider `O=C(O)CCc1ccc(OCc2cccc(F)c2)c(-c2ccc3ccccc3c2)c1` [Compound 033, 3-[4-(3-fluorophenylmethyloxy)-3-(naphthalen-2-yl)phenyl]propionic acid], for which, in assay [1], the inhibition at 0.4 µM is at least 50%. Moreover, the “suppression of footpad edema caused by zymosan” value (“suppression … by zymosan” below) in assay [2] is “suppressed footpad edema”. Further, the “suppression of footpad edema caused by IgE stimulation” value (“suppression … by IgE stimulation” for short) in assay [3] is “suppressed the footpad edema”.

For `O=C(O)CCc1ccc(OCCc2ccccc2)c(-c2ccc3ccccc3c2)c1` [Compound 051, 3-[3-(naphthalen-2-yl)-4-(2-phenylethyloxy)phenyl]propionic acid], the inhibition at 0.4 µM in assay [1] was at least 50%. The “suppression … by IgE stimulation” value in assay [3] is on record as “suppressed the footpad edema”.

For `O=C(O)CCc1ccc(OCCc2cccc(F)c2)c(-c2ccc3ccccc3c2)c1` [Compound 055, 3-{4-[2-(3-fluorophenyl)ethyloxy]-3-(naphthalen-2-yl)phenyl}propionic acid], in assay [1], the inhibition at 0.4 µM is at least 50%. Further, the “suppression … by zymosan” value in assay [2] is reported as “suppressed footpad edema”. Also, the “suppression … by IgE stimulation” value in assay [3] is “suppressed the footpad edema”.

With `O=C(O)CCc1ccc(OCCc2ccc(F)cc2)c(-c2ccc3ccccc3c2)c1` [Compound 057, 3-{4-[2-(4-fluorophenyl)ethyloxy]-3-(naphthalen-2-yl)phenyl}propionic acid], the inhibition at 0.4 µM in assay [1] was at least 50%. The “suppression … by zymosan” value in assay [2] is recorded as “suppressed footpad edema”. Moreover, the “suppression … by IgE stimulation” value in assay [3] is recorded as “suppressed the footpad edema”.

For the compound `O=C(O)CCc1ccc(OCC2CCCCC2)c(-c2cccc3[nH]ccc23)c1` [Compound 116, 3-[4-cyclohexylmethyloxy-3-(1H-indol-4-yl)phenyl]propionic acid], the inhibition at 0.4 µM in assay [1] is at least 50%. Further, the “suppression … by zymosan” value in assay [2] is on record as “suppressed footpad edema”. Also, the “suppression … by IgE stimulation” value in assay [3] is given as “suppressed the footpad edema”.

For the compound `Cn1ccc2c(-c3cc(CCC(=O)O)ccc3OC3CCCCC3)cccc21` [Compound 126, 3-[4-cyclohexyloxy-3-(1-methyl-1H-indol-4-yl)phenyl]propionic acid], the inhibition at 0.4 µM in assay [1] was at least 50%. In addition, in assay [2], the “suppression … by zymosan” value is “suppressed footpad edema”. Besides, the “suppression … by IgE stimulation” value in assay [3] is recorded as “suppressed the footpad edema”.

`O=C(O)CCc1ccc(OCc2ccc(F)cc2F)c(-c2ccc3[nH]ccc3c2)c1` [Compound 156, 3-[4-(2,4-difluorophenylmethyloxy)-3-(1H-indol-5-yl)phenyl]propionic acid]: in assay [1], the inhibition at 0.4 µM was at least 50%. Further, the “suppression … by IgE stimulation” value in assay [3] is reported as “suppressed the footpad edema”.

Consider `O=C(O)CCc1ccc(OCc2ccc(F)c(F)c2)c(-c2ccc3[nH]ccc3c2)c1` [Compound 158, 3-[4-(3,4-difluorophenylmethyloxy)-3-(1H-indol-5-yl)phenyl]propionic acid], for which the inhibition at 0.4 µM in assay [1] is at least 50%. The “suppression … by IgE stimulation” value in assay [3] was “suppressed the footpad edema”.

For the compound `O=C(O)CCc1ccc(OCc2ccc(Br)cc2F)c(-c2ccc3[nH]ccc3c2)c1` [Compound 168], the “suppression … by zymosan” value in assay [2] is recorded as “suppressed footpad edema”. Moreover, the “suppression … by IgE stimulation” value in assay [3] is “suppressed the footpad edema”.

For the compound `O=C(O)CCc1ccc(OCc2ccc3ccccc3c2)c(-c2ccc3[nH]ccc3c2)c1` [Compound 192, 3-{3-(1H-indol-5-yl)-4-[(Naphthalen-2-yl)methyloxy]phenyl}propionic acid], in assay [1], the inhibition at 0.4 µM is at least 50%. Further, the “suppression … by IgE stimulation” value in assay [3] is reported as “suppressed the footpad edema”.

Take `O=C(O)CCc1ccc(OCCc2ccc(Cl)cc2)c(-c2ccc3[nH]ccc3c2)c1` [Compound 213, 3-{4-[2-(4-chlorophenyl)ethyloxy]-3-(1H-indol-5-yl)phenyl}propionic acid]: in assay [1], the inhibition at 0.4 µM is at least 50%. The “suppression … by IgE stimulation” value in assay [3] is “suppressed the footpad edema”.

Take `CCn1ccc2cc(-c3cc(CCC(=O)O)ccc3OC3CCCC3)ccc21` [Compound 246, 3-[4-cyclopentyloxy-3-(1-ethyl-1H-indol-5-yl)phenyl]propionic acid]: the inhibition at 0.4 µM in assay [1], in assay [4] and in assay [5] was at least 50% in each case. For the same compound, in assay [2], the “suppression … by zymosan” value is given as “suppressed footpad edema”.

As to `Nc1cc(CCC(=O)O)cc(-c2ccc3[nH]ccc3c2)c1OCC1CCCC1` [Compound 266, 3-[3-amino-4-cyclopentylmethyloxy-5-(1H-indol-5-yl)phenyl]propionic acid], the inhibition at 0.4 µM in assay [1] was at least 50%. In assay [3], the “suppression … by IgE stimulation” value is “suppressed the footpad edema”.

As to `Nc1nc2ccc(-c3cc(CCC(=O)O)ccc3OC3CCCCC3)cc2s1` [Compound 295, 3-[3-(2-aminobenzothiazol-6-yl)-4-cyclohexyloxyphenyl]propionic acid], the inhibition at 0.4 µM in assay [1], in assay [4] and in assay [5] was at least 50% in each case. The “suppression … by zymosan” value in assay [2] is listed as “suppressed footpad edema”.

For `O=C(O)CCc1ccc(OCc2ccccc2)c(-c2ccc3[nH]ccc3c2)c1` [Compound 325, 3-[4-benzyloxy-3-(1H-indol-5-yl)phenyl]propionic acid], in assay [1], the inhibition at 0.4 µM is at least 50%. Moreover, the “suppression … by IgE stimulation” value in assay [3] was “suppressed the footpad edema”.
